Measured values: the NIST ThermoML archive (doi:10.1007/s10765-008-0410-4)

Conditions: Liquid, Vibrating tube method

CCCCn1cc[n+](C)c1.F[B-](F)(F)F [1-butyl-3-methylimidazolium tetrafluoroborate]
Conditions	mass density [kg/m3]
298.15 K, 280 kPa	1211.19
298.15 K, 5640 kPa	1213.63
298.15 K, 10620 kPa	1215.85
298.15 K, 15340 kPa	1217.77
298.15 K, 20640 kPa	1220.29
298.15 K, 25270 kPa	1222.18
298.15 K, 30050 kPa	1223.93
298.15 K, 35410 kPa	1226.07
298.15 K, 39610 kPa	1227.81
323.15 K, 730 kPa	1192.89
323.15 K, 5640 kPa	1195.3
323.15 K, 10610 kPa	1197.71
323.15 K, 15440 kPa	1200.01
323.15 K, 20460 kPa	1202.37
323.15 K, 25360 kPa	1204.64
323.15 K, 30740 kPa	1207.09
323.15 K, 35650 kPa	1209.29
323.15 K, 39850 kPa	1211.14
348.15 K, 210 kPa	1174.44
348.15 K, 5960 kPa	1177.75
348.15 K, 10480 kPa	1180.3
348.15 K, 15430 kPa	1182.72
348.15 K, 20870 kPa	1185.63
348.15 K, 25850 kPa	1188.16
348.15 K, 30110 kPa	1190.19
348.15 K, 35110 kPa	1192.88
348.15 K, 39610 kPa	1194.77
373.15 K, 470 kPa	1157.24
373.15 K, 5350 kPa	1160.25
373.15 K, 10080 kPa	1163.09
373.15 K, 15710 kPa	1166.39
373.15 K, 20970 kPa	1169.38
373.15 K, 25820 kPa	1172.07
373.15 K, 30120 kPa	1174.39
373.15 K, 35530 kPa	1177.22
373.15 K, 39820 kPa	1179.41
398.15 K, 870 kPa	1141.05
398.15 K, 6670 kPa	1144.53
398.15 K, 10490 kPa	1147.07
398.15 K, 15730 kPa	1150.32
398.15 K, 20980 kPa	1153.78
398.15 K, 25140 kPa	1156.3
398.15 K, 30890 kPa	1159.52
398.15 K, 35810 kPa	1162.4
398.15 K, 39560 kPa	1164.38
